One compound from article PMC8132114 (ACS combinatorial science, 2019) can be followed below.

Usually Kd stands for the concentration at which binding is half-saturated.

*1 amine or outer side, *2 acyl side, *3 side chain or, on linkers, in order; H or OH if unused. Where a SMILES comes first, the peptide text is derived from it. [ ]: non-standard residue; d: D form. The star is where a group is joined. X1 = O=C([C@H](CCON=Cc1c(Cl)cncc1Cl)N[*:1])[*:2]; Biotin = O=C1N[C@H]2[C@H](CS[C@H]2CCCCC(=O)*)N1; pY = N[C@@H](Cc1ccc(OP(=O)(O)O)cc1)C(=O)O; Ahx = NCCCCCC(=O)O

This assay deals with VH1 C110S. The assay is classed as binding, Variola major. The note with it: pH 6.2.

Compound `CC(C)[C@H](NC(=O)CCCCCNC(=O)CCCC[C@@H]1SC[C@@H]2NC(=O)N[C@@H]21)C(=O)N[C@@H](CC(=O)O)C(=O)N[C@@H](C)C(=O)N[C@@H](CC(=O)O)C(=O)N[C@@H](CCC(=O)O)C(=O)N[C@@H](Cc1ccc(OP(=O)(O)O)cc1)C(=O)N[C@@H](CCON=Cc1c(Cl)cncc1Cl)C(N)=O` [Peptide 6f-w202] ({Biotin-Ahx}-VDADE[pY][X1]-NH2) returned a Kd of 73 ± 27 nM.
